Measurements: PubChem BioAssay AID2060905 (Molecular Pharmacology Branch, DTP, NCI, 2025)

System: 282377-053-R-J1-PDC complex spheroid viability
Assay: Anticancer human tumor 282377-053-R-J1-PDC patient-derived colon adenocarcinoma cell line growth inhibition [RAS]
Conditions: for IC50: curve of first compound; for viability, T/C: stronger effect = lower value
Outline: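 Multi-cell-type spheroids: tumor cells plus HUVEC endothelial cells and mesenchymal stem cells. RAS-pathway inhibitors were combined with targeted agents, each dosed in half-log steps down from clinical Cmax, or from 10 microM when Cmax was unknown.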
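Further: spheroids exposed to agents for seven days before readout.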
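Wherever viability, T/C is given: luminescence viability as percent of DMSO vehicle control wells.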

Molecule `CCC(CC)c1cc(NC2CCC(N)C2)n2nccc2n1` (stereo unspecified) + C#Cc1c(F)ccc2cc(O)cc(-c3ncc4c(N5CC6CCC(C5)N6)nc(OCC56CCCN5CC(F)C6)nc4c3F)c12 has an IC50 (second compound 0.0316 µM) of 1970 nM, an IC50 (second compound 0.1 µM) of 2020 nM and an IC50 (second compound 0.316 µM) of 1860 nM. It also gave an IC50 (second compound 1 µM) of 1700 nM, an IC50 (second compound 3.16 µM) of 1910 nM and an IC50 (second compound 10 µM) of 1760 nM. The viability, T/C (second compound 0.0316 µM, first compound 0.0316 µM) was 113%, the viability, T/C (second compound 0.0316 µM, first compound 0.1 µM) was 120% and the viability, T/C (second compound 0.0316 µM, first compound 0.316 µM) was 89.4%. The viability, T/C (second compound 0.0316 µM, first compound 1 µM) was 111%, the viability, T/C (second compound 0.0316 µM, first compound 3.16 µM) was 9.2% and the viability, T/C (second compound 0.0316 µM, first compound 10 µM) was 2.06%. For the same molecule, the viability, T/C (second compound 0.1 µM, first compound 0.0316 µM) was 113%, the viability, T/C (second compound 0.1 µM, first compound 0.1 µM) was 123% and the viability, T/C (second compound 0.1 µM, first compound 0.316 µM) was 94.9%. For the same molecule, the viability, T/C (second compound 0.1 µM, first compound 1 µM) was 118%, the viability, T/C (second compound 0.1 µM, first compound 3.16 µM) was 10.2% and the viability, T/C (second compound 0.1 µM, first compound 10 µM) was 2.09%. It also gave a viability, T/C (second compound 0.316 µM, first compound 0.0316 µM) of 107%, a viability, T/C (second compound 0.316 µM, first compound 0.1 µM) of 102% and a viability, T/C (second compound 0.316 µM, first compound 0.316 µM) of 81.3%. The viability, T/C (second compound 0.316 µM, first compound 1 µM) was 96.9%, the viability, T/C (second compound 0.316 µM, first compound 3.16 µM) was 9.63% and the viability, T/C (second compound 0.316 µM, first compound 10 µM) was 2.11%. It also gave a viability, T/C (second compound 1 µM, first compound 0.0316 µM) of 103%, a viability, T/C (second compound 1 µM, first compound 0.1 µM) of 95.4% and a viability, T/C (second compound 1 µM, first compound 0.316 µM) of 86.8%. It also gave a viability, T/C (second compound 1 µM, first compound 1 µM) of 84.6%, a viability, T/C (second compound 1 µM, first compound 3.16 µM) of 9.29% and a viability, T/C (second compound 1 µM, first compound 10 µM) of 2.23%. It also gave a viability, T/C (second compound 3.16 µM, first compound 0.0316 µM) of 99.5%, a viability, T/C (second compound 3.16 µM, first compound 0.1 µM) of 112% and a viability, T/C (second compound 3.16 µM, first compound 0.316 µM) of 104%. The viability, T/C (second compound 3.16 µM, first compound 1 µM) was 100%, the viability, T/C (second compound 3.16 µM, first compound 3.16 µM) was 10.8% and the viability, T/C (second compound 3.16 µM, first compound 10 µM) was 2.69%. The viability, T/C (second compound 10 µM, first compound 0.0316 µM) was 101%, the viability, T/C (second compound 10 µM, first compound 0.1 µM) was 95.9% and the viability, T/C (second compound 10 µM, first compound 0.316 µM) was 96.3%. The viability, T/C (second compound 10 µM, first compound 1 µM) was 89.4%, the viability, T/C (second compound 10 µM, first compound 3.16 µM) was 9.18% and the viability, T/C (second compound 10 µM, first compound 10 µM) was 3.74%.
Molecule `Nc1ccn(C2OC(CO)C(O)C2(F)F)c(=O)n1` (stereo unspecified) + CCn1c(-c2cc(N3CCN(C)CC3)cnc2C(C)OC)c2c3cc(ccc31)-c1csc(n1)CC(NC(=O)C1CC1C)C(=O)N1CCCC(N1)C(=O)OCC(C)(C)C2 has an IC50 (second compound 0.000949 µM) of over 1000 nM, an IC50 (second compound 0.003 µM) of over 1000 nM and an IC50 (second compound 0.00949 µM) of over 1000 nM. The IC50 (second compound 0.03 µM) was over 1000 nM, the IC50 (second compound 0.0949 µM) was over 1000 nM and the IC50 (second compound 0.3 µM) was over 1000 nM. For the same molecule, the viability, T/C (second compound 0.000949 µM, first compound 0.00316 µM) was 107%, the viability, T/C (second compound 0.000949 µM, first compound 0.01 µM) was 95.1% and the viability, T/C (second compound 0.000949 µM, first compound 0.0316 µM) was 120%. It also gave a viability, T/C (second compound 0.000949 µM, first compound 0.1 µM) of 107%, a viability, T/C (second compound 0.000949 µM, first compound 0.316 µM) of 101% and a viability, T/C (second compound 0.000949 µM, first compound 1 µM) of 66.8%. For the same molecule, the viability, T/C (second compound 0.003 µM, first compound 0.00316 µM) was 90%, the viability, T/C (second compound 0.003 µM, first compound 0.01 µM) was 110% and the viability, T/C (second compound 0.003 µM, first compound 0.0316 µM) was 106%. For the same molecule, the viability, T/C (second compound 0.003 µM, first compound 0.1 µM) was 111%, the viability, T/C (second compound 0.003 µM, first compound 0.316 µM) was 93.8% and the viability, T/C (second compound 0.003 µM, first compound 1 µM) was 64.6%. The viability, T/C (second compound 0.00949 µM, first compound 0.00316 µM) was 116%, the viability, T/C (second compound 0.00949 µM, first compound 0.01 µM) was 95.9% and the viability, T/C (second compound 0.00949 µM, first compound 0.0316 µM) was 129%. It also gave a viability, T/C (second compound 0.00949 µM, first compound 0.1 µM) of 107%, a viability, T/C (second compound 0.00949 µM, first compound 0.316 µM) of 96.4% and a viability, T/C (second compound 0.00949 µM, first compound 1 µM) of 69%. The viability, T/C (second compound 0.03 µM, first compound 0.00316 µM) was 104%, the viability, T/C (second compound 0.03 µM, first compound 0.01 µM) was 100% and the viability, T/C (second compound 0.03 µM, first compound 0.0316 µM) was 108%. For the same molecule, the viability, T/C (second compound 0.03 µM, first compound 0.1 µM) was 115%, the viability, T/C (second compound 0.03 µM, first compound 0.316 µM) was 86.7% and the viability, T/C (second compound 0.03 µM, first compound 1 µM) was 71.5%. For the same molecule, the viability, T/C (second compound 0.0949 µM, first compound 0.00316 µM) was 104%, the viability, T/C (second compound 0.0949 µM, first compound 0.01 µM) was 95.2% and the viability, T/C (second compound 0.0949 µM, first compound 0.0316 µM) was 100%. For the same molecule, the viability, T/C (second compound 0.0949 µM, first compound 0.1 µM) was 106%, the viability, T/C (second compound 0.0949 µM, first compound 0.316 µM) was 123% and the viability, T/C (second compound 0.0949 µM, first compound 1 µM) was 72.5%. For the same molecule, the viability, T/C (second compound 0.3 µM, first compound 0.00316 µM) was 120%, the viability, T/C (second compound 0.3 µM, first compound 0.01 µM) was 94.2% and the viability, T/C (second compound 0.3 µM, first compound 0.0316 µM) was 129%. It also gave a viability, T/C (second compound 0.3 µM, first compound 0.1 µM) of 131%, a viability, T/C (second compound 0.3 µM, first compound 0.316 µM) of 118% and a viability, T/C (second compound 0.3 µM, first compound 1 µM) of 108%.
`CC1(C)CCC(Nc2ncc(C(F)(F)F)c(-c3c[nH]c4c(P(C)(C)=O)c(C#N)ccc34)n2)CN1` (stereo unspecified) + CCn1c(-c2cccnc2C(C)OC)c2c3cc(ccc31)N1CCOC(CC(NC(=O)C(C(C)C)N(C)C(=O)C3(F)CCN(C(=O)C#CC(C)(C)N(C)C)CC3)C(=O)N3CCCC(N3)C(=O)OCC(C)(C)C2)C1 showed an IC50 (second compound 0.000949 µM) of over 300 nM, an IC50 (second compound 0.003 µM) of over 300 nM and an IC50 (second compound 0.00949 µM) of over 300 nM. The IC50 (second compound 0.03 µM) was over 300 nM, the IC50 (second compound 0.0949 µM) was over 300 nM and the IC50 (second compound 0.3 µM) was over 300 nM. The viability, T/C (second compound 0.000949 µM, first compound 0.000949 µM) was 83.9%, the viability, T/C (second compound 0.000949 µM, first compound 0.003 µM) was 124% and the viability, T/C (second compound 0.000949 µM, first compound 0.00949 µM) was 115%. It also gave a viability, T/C (second compound 0.000949 µM, first compound 0.03 µM) of 90%, a viability, T/C (second compound 0.000949 µM, first compound 0.0949 µM) of 104% and a viability, T/C (second compound 0.000949 µM, first compound 0.3 µM) of 75.9%. It also gave a viability, T/C (second compound 0.003 µM, first compound 0.000949 µM) of 94.1%, a viability, T/C (second compound 0.003 µM, first compound 0.003 µM) of 112% and a viability, T/C (second compound 0.003 µM, first compound 0.00949 µM) of 140%. It also gave a viability, T/C (second compound 0.003 µM, first compound 0.03 µM) of 88.6%, a viability, T/C (second compound 0.003 µM, first compound 0.0949 µM) of 89.5% and a viability, T/C (second compound 0.003 µM, first compound 0.3 µM) of 89.3%. For the same molecule, the viability, T/C (second compound 0.00949 µM, first compound 0.000949 µM) was 102%, the viability, T/C (second compound 0.00949 µM, first compound 0.003 µM) was 105% and the viability, T/C (second compound 0.00949 µM, first compound 0.00949 µM) was 134%. The viability, T/C (second compound 0.00949 µM, first compound 0.03 µM) was 97%, the viability, T/C (second compound 0.00949 µM, first compound 0.0949 µM) was 80.8% and the viability, T/C (second compound 0.00949 µM, first compound 0.3 µM) was 92.9%. The viability, T/C (second compound 0.03 µM, first compound 0.000949 µM) was 89.3%, the viability, T/C (second compound 0.03 µM, first compound 0.003 µM) was 118% and the viability, T/C (second compound 0.03 µM, first compound 0.00949 µM) was 98.2%. For the same molecule, the viability, T/C (second compound 0.03 µM, first compound 0.03 µM) was 96.3%, the viability, T/C (second compound 0.03 µM, first compound 0.0949 µM) was 91.2% and the viability, T/C (second compound 0.03 µM, first compound 0.3 µM) was 96.9%. For the same molecule, the viability, T/C (second compound 0.0949 µM, first compound 0.000949 µM) was 84.5%, the viability, T/C (second compound 0.0949 µM, first compound 0.003 µM) was 135% and the viability, T/C (second compound 0.0949 µM, first compound 0.00949 µM) was 131%. The viability, T/C (second compound 0.0949 µM, first compound 0.03 µM) was 77%, the viability, T/C (second compound 0.0949 µM, first compound 0.0949 µM) was 75.1% and the viability, T/C (second compound 0.0949 µM, first compound 0.3 µM) was 67.9%. For the same molecule, the viability, T/C (second compound 0.3 µM, first compound 0.000949 µM) was 92.6%, the viability, T/C (second compound 0.3 µM, first compound 0.003 µM) was 107% and the viability, T/C (second compound 0.3 µM, first compound 0.00949 µM) was 110%. It also gave a viability, T/C (second compound 0.3 µM, first compound 0.03 µM) of 84.5%, a viability, T/C (second compound 0.3 µM, first compound 0.0949 µM) of 56.9% and a viability, T/C (second compound 0.3 µM, first compound 0.3 µM) of 53.6%.
